Values of other authors as cited in patent US20200077661A1, “METHOD AND "IDEPS" COMPOSITION FOR DESTROYING MICROORGANISMS IN A SESSILE STATE” (IDEPS GMBH, priority 2016, published 2020).

System: coagulase-negative staphylococci

Substance: varnerin
- destruction of the exopolymeric matrix (16-128 μg/ml varnerin for 10 μg of biofilm, incubation at 37° C. for 24 hours): partial destruction
- bacterial cells die (16-128 μg/ml varnerin for 10 μg of biofilm, incubation at 37° C. for 24 hours, biofilm formed within 24 hours): up to 30%
- bacteria in the young biofilm not eliminated (young biofilm (24 hours old)): up to 70%
